Measured values published in PMC4207550 (Drug Design, Development and Therapy, 2014).

Assays:
Assay type in all cases: biochemical
[1] = molecular target: human recombinant butyrylcholinesterase (hBuChE) (Homo sapiens, UniProt P06276); assay: Inhibition of hBuChE, Ellman method
[2] = molecular target: human recombinant acetylcholinesterase (hAChE) (Homo sapiens, UniProt P22303); assay: Inhibition of hAChE, Ellman method
human recombinant MAO B [3] = molecular target: T1, human recombinant MAO B (Homo sapiens, UniProt P27338); assay: Test of reversibility of inhibition of human recombinant MAO B
T1 sequence (P27338 1-520): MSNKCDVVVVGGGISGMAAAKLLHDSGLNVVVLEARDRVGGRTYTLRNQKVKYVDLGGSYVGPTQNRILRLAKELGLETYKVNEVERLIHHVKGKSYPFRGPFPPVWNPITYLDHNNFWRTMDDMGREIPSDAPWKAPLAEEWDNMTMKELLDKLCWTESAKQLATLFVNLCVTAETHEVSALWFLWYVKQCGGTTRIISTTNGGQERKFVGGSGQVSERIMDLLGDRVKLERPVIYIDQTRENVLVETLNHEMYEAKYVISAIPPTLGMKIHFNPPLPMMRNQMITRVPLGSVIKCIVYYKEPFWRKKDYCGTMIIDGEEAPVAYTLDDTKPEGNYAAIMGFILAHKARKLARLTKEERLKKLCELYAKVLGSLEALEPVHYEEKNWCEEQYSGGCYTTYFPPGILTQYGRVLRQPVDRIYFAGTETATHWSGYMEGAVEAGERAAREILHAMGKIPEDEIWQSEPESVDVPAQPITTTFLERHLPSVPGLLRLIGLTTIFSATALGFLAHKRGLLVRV

human recombinant MAO B [4] = molecular target: T1, human recombinant MAO B; assay: Time-dependent inhibition of human recombinant MAO B; details: pre-incubation times 15–60 minutes

Chain of human recombinant butyrylcholinesterase (hBuChE) (P06276 29-602): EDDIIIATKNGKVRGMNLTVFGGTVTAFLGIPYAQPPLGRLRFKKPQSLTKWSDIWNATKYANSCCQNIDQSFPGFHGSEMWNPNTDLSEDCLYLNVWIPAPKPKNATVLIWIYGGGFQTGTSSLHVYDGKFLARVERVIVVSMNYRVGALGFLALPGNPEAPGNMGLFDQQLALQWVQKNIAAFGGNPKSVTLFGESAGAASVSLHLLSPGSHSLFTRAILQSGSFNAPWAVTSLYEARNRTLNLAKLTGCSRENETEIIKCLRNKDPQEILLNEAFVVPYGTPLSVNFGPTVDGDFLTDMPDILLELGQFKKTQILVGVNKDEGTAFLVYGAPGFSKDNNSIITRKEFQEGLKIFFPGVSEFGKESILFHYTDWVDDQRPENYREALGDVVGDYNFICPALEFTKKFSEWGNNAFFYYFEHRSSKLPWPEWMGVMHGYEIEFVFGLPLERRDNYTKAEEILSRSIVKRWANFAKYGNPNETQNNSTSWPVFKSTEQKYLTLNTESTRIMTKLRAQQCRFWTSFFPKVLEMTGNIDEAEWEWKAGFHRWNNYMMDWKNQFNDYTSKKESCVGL
Chain of human recombinant acetylcholinesterase (hAChE) (P22303 32-614): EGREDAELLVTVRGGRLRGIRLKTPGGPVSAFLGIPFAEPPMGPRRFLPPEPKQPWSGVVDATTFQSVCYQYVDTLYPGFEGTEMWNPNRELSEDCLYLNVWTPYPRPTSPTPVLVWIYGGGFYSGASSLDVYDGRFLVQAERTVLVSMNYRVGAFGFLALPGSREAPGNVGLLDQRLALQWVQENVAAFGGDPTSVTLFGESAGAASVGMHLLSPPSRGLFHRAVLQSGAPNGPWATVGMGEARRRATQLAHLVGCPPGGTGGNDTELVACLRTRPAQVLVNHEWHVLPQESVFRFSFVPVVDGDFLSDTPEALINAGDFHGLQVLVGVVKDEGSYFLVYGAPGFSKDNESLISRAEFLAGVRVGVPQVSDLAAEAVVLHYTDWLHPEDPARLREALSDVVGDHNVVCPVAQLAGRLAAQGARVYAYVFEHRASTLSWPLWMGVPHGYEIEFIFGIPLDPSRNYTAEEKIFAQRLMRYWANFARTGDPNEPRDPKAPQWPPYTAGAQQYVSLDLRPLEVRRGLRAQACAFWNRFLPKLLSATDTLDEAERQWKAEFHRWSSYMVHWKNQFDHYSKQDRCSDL

SMILES	IC50 [1] [nM]	IC50 [2] [nM]	reversibility of hMAO B inhibition (human recombinant MAO B [3]; 50 μM, after 100-fold dilution with 1 mM tyramine)	inhibition at 50 µM (human recombinant MAO B [3]; read-out: initial MAO B inhibition) [%]	time dependence of hMAO B inhibition (human recombinant MAO B [4])	fold more active than donepezil for the inhibition of hAChE ([2]; vs donepezil) [fold]	fold more potent than donepezil for hBuChE ([1]; vs donepezil) [fold]
C#CCN(C)c1nc(NCCCCC2CCN(Cc3ccccc3)CC2)c(C#N)c(-c2ccccc2)c1C#N [DPH9]	1190	–	–	–	–	–	–
C#CCNc1nc(NCCCCC2CCN(Cc3ccccc3)CC2)c(C#N)c(-c2ccccc2)c1C#N [DPH12]	770 ± 140	–	–	–	–	–	–
C#CCN(C)c1nc(NCCCCC2CCN(Cc3ccccc3)CC2)c(C#N)cc1C#N [DPH14]	835 ± 139	13.1 ± 2.1	irreversible	55	time-dependent inhibition	–	–
C#CCNc1nc(NCCCCC2CCN(Cc3ccccc3)CC2)c(C#N)cc1C#N [DPH16]	790 ± 110	–	–	–	–	3.1	9.2
